The values below come from patent US10112918B2, “15-oxospiramilactone derivatives, preparation method and uses thereof” (Kunming Institute of Botany, The Chinese Academy of Sciences, priority 2013, dated 2018).

Holding throughout (type): cell-based
For assay [1], the system named is HL-60 (human promyelocytic leukemia cells). The experiment in a line: MTT inhibition of tumor cell growth, HL-60. To be noted: Homo sapiens, HL-60, 48 h. An outline of the steps:
(§1)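 Compound exposure lasts 48 h at 37° C on cells plated at 5000-10000 per well in serum-containing medium. Viability is read by MTT reduction at 595 nm, and IC50 is computed with the two-point Reed and Muench method.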

Assay [2] deals with SMMC-7721 (human hepatoma cells). Kind of assay: MTT inhibition of tumor cell growth, SMMC-7721. To be noted: Homo sapiens, SMMC-7721, 48 h. An outline of the steps:
as §1

Assay [3] relates to A-549 (Human lung adenocarcinoma cells). The experiment in a line: MTT inhibition of tumor cell growth, A-549. The settings on record: Homo sapiens, A549, 48 h. An outline of the steps:
as §1

The test system of assay [4] is MCF-7 (human breast cancer cells). The experiment in a line: MTT inhibition of tumor cell growth, MCF-7. The settings on record: Homo sapiens, MCF7, 48 h. An outline of the steps:
as §1

The test system of assay [5] is SW-480 (human colon cancer cells). Kind of assay: MTT inhibition of tumor cell growth, SW-480. To be noted: Homo sapiens, SW480, 48 h. An outline of the steps:
as §1

In assay [6] the test system is Wnt signaling pathway (Top-Flash reporter gene). Kind of assay: Top-Flash Wnt reporter gene assay in HEK293T cells with Wnt3a conditioned medium. The settings on record: Homo sapiens, HEK-293T, 6 h, HEK293T, Wnt3a conditioned medium, 6 h. The method, then: HEK293T cells were cultured in DMEM containing 10% fetal bovine serum (Invitrogen) at 37° C., 5% CO2. The cells were passaged every other day. The density was retained at 70˜80% during passage. L cell line (CRL-2647, purchased from the gene bank of ATCC, the US) and the control cell line (CRL-2648, purchased from ATCC, US), which stably secreted mouse Wnt3a protein, were cultured in DMEM containing 50 ug/ml G418 and 10% fetal bovine serum, at 37° C., 5% CO2. When the cells grew to a density of about 70%, the medium was replaced with DMEM containing 10% fetal bovine serum. After continuous culture for 4 days, the culture was collected and centrifuged, and the supernatant was kept so that the Wnt conditioned medium was obtained. After titration assay, the conditioned medium was quick-frozen in liquid nitrogen, and placed at −80° C. for long-term storage, so that the titer was kept unchanged.
The cells were seeded to a 48-well plate at a density of […] cells per well, and transfected 20 h later. The reagents for plasmid transfection were calculated based on the amount in each well of the 48-well plate as following: the total amount of plasmid was 125 ng/well; the plasmid was first added to a serum-free medium (25 μL/well) and mixed well; PLUS reagent (Invitrogen) was then added in an amount of 0.5 μL/well and mixed well, then stood for 15 min; Lipofectamine (Invitrogen) liposome was added in an amount of 0.5 μL/well to serum-free DMEM medium (25 μL/well), and then mixed with the solution containing the plasmid and the PLUS, and stood for 15 min. The cells were cultured in serum-free DMEM medium (100 μL/well), and the final mixture of plasmid, PLUS and Lipofectamine were added to the cells. After incubation for 3 h, the transfection was stopped by the medium containing 10% fetal bovine serum (200 μL/well).
The HEK293T cells used for activity assay of the report gene were transfected by the method as shown in 2). Activity assay of Wnt reporter gene: the amount of plasmid for transfection was 5 ng/well for TOP-flash and 5 ng/well for GFP plasmid as internal standard, with lacZ added to reach a total amount of 125 ng/well. […] After treating for 6 h, Boehringer Mannheim Luci-ferase Assay Kit was used to lyse cells (200 μL/well). 50 μL from each well was pipetted into a 96-well plate. The indensity of GFP protein in the cell lysate was measured by fluorimeter FL600 (BIO-TEK Inc. Winooski, Vt.), and taken as internal standard for cell transfection efficiency. 10 μL substrate of luciferase was then added to each well, and the activity of luciferase was measured by Micro Lumate Plus (Perkin Elmer Inc. Wellesley, Mass.) luminometer. Finally, GFP indensity was used as internal standard to calibrate the activity of luciferase, i.e. the activity of Wnt reporter gene.
Calculation of IC50 (taking the calculation of IC50 of the Wnt signaling pathway for example): background (the activity as measured in the groups treated with a conditioned medium containing DMSO only) was subtracted from the reporter gene activity as measured in the groups treated by Wnt3a conditioned medium with or without the compound to be tested at different concentrations; and the obtained value was defined as the activity of the reporter gene induced by Wnt or the residual activity of the reporter gene after adding the compound to be tested. The residual activity was normalized by the activity induced by Wnt to get the relative residual activity. Then combine with the concentrations of the compound to be tested to plot a linear graph, and a dose-effect curve was fitted based on 4-parameter logistic fit. IC50 of the Wnt signaling pathway is determined as the concentration at which the relative residual activity is 0.5.
On the technique in general: In a reporter assay the amount or activity of a reporter protein is the signal.

Where [7] appears, read: Table 4, derivatives obtained by reduction of the lactonic ring.
Where [8] appears, read: Table 8, read-out: IC50 (μM), inhibitory activity on the Wnt signaling pathway.
Where [9] appears, read: Table 1, 7-hydroxy derivatives of S-3.
[10] abbreviates: Table 1, 7-hydroxy derivatives of S-3, read-out: IC50 SW-480.
Where [11] appears, read: Table 7 (second), derivatives modified on 7-hydroxyl of S-3, read-out: IC50 (μM), inhibitory activity on the Wnt signaling pathway.
The mark [12] stands for this setting: Table 2, derivatives having potential Michael reaction acceptor.
Setting [13] is: Table 2, derivatives having potential Michael reaction acceptor, read-out: IC50 SW-480.
Setting [14] is: Table 9, read-out: IC50(μM), inhibitory activity on the Wnt signaling pathway.
Where [15] appears, read: Table 5, derivatives having double Michael reaction acceptor.
Setting [16] is: Table 3, single Michael reaction acceptor, modified lactonic ring.
Setting [17] is: Table 3, single Michael reaction acceptor, modified lactonic ring, read-out: IC50 SW-480.

SMILES strings stand for the structures. Like-named read-outs stand apart in the source and are kept apart here.

In general, IC50 refers to the concentration that gives 50% inhibition. `C=C1C(=O)C23CC[C@H]1CC2[C@]1(COC(C)=O)CCC[C@@](C)(COC(=O)c2cccs2)C1CC3=O` (some centres unmarked) [Compound 66]: the IC50 in assay [1] (setting [7]) was determined as 0.71 µM; in assay [2] (setting [7]), 0.57 µM; in assay [3] (setting [7]) it was 0.8 µM; in assay [4] (setting [7]), 0.89 µM; in assay [5] (Table 4, derivatives obtained by reduction of the lactonic ring, read-out: IC50 SW-480), 0.76 µM; in assay [5] (Table 6, 7-carbonyl derivatives, read-out: IC50 SW-480, 7-carbonyl derivatives) it was 0.7 µM. In addition, in assay [6] (setting [8]), the IC50 was 8.39 ± 0.63 µM.

`C=C1C(=O)[C@]23CC[C@H]1CC2[C@@]12CCC[C@@](C)(COC1=O)C2C[C@H]3OS(=O)(=O)c1ccc(Cl)cc1` (some centres unmarked) [Compound 1t]: the IC50 in assay [1] (setting [9]) is 3.36 µM; in assay [2] (setting [9]) it was 3.64 µM; in assay [3] (setting [9]), 2.94 µM; in assay [4] (setting [9]) it was 3.19 µM; in assay [5] (setting [10]), 1.91 µM; in assay [6] (setting [11]), 14.4 ± 2.28 µM.

With `C=C1C(=O)C23CC[C@H]1CC2[C@@]12CCC[C@@](C)(COC1=O)C2C[C@H]3OC(=O)c1ccc(OC)cc1` (some centres unmarked) [Compound 1l], the IC50 in assay [1] (setting [9]) amounted to 4.2 µM; in assay [2] (setting [9]), 3.6 µM; in assay [3] (setting [9]), 2.46 µM; in assay [4] (setting [9]), 3.07 µM; in assay [5] (setting [10]) it was 2.43 µM; in assay [6] (setting [11]) it was 18.6 ± 1.48 µM.

For the compound `C=C1C(=O)C23CC[C@H]1CC2[C@]1(COC(C)=O)CCC[C@@](C)(COC(C)=O)C1[C@H](COS(C)(=O)=O)C3=O` (some centres unmarked) [Compound 49], the IC50 in assay [1] (setting [12]) stood at 6.5 µM; in assay [2] (setting [12]), 14 µM; in assay [3] (setting [12]) it was 11 µM; in assay [4] (setting [12]), 12.8 µM; in assay [5] (setting [13]), 15.5 µM; in assay [6] (setting [14]) it was 58.2 ± 1.18 µM.

For the compound `C=C1C(=O)[C@@]23CC[C@@H](CC2[C@@]24CCC[C@@](C)(CO[C@H]2OC)C14)C(=C)C3=O` (some centres unmarked) [Compound 23], the IC50 worked out at 0.51 µM in assay [1] (setting [15]); 0.15 µM in assay [2] (setting [15]); 0.2 µM in assay [3] (setting [15]); 0.24 µM in assay [4] (setting [15]); 0.39 µM in assay [5] (Table 5, derivatives having double Michael reaction acceptor, read-out: IC50 SW-480); 0.79 µM in assay [5] (Table 6, double Michael reaction acceptor derivatives, read-out: IC50 SW-480, derivatives having double Michael reaction acceptor). Moreover, the IC50 in assay [6] (setting [14]) was determined as 6.72 ± 1.11 µM.

For the compound `C=C1C(=O)C23CC[C@H]1CC2[C@]1(C(=O)O)CCC[C@@](C)(CO)C1C[C@H]3O` (some centres unmarked) [Compound 38], the IC50 in assay [1] (setting [16]) is greater than 40 µM; in assay [2] (setting [16]), greater than 40 µM; in assay [3] (setting [16]), greater than 40 µM; in assay [4] (setting [16]), greater than 40 µM; in assay [5] (setting [17]), greater than 40 µM; in assay [6] (setting [8]), greater than 60 µM.

Consider `C=C1C(=O)[C@]23CC[C@H]1CC2[C@@]12CCC[C@@](C)(COC1)C2[C@H](CO)C3=O` (some centres unmarked) [Compound 30], for which the IC50 in assay [1] (setting [12]) turned out to be 1.94 µM; in assay [2] (setting [12]), 1.9 µM; in assay [3] (setting [12]), 0.77 µM; in assay [4] (setting [12]) it was 1.44 µM; in assay [5] (setting [13]) it was 1.53 µM; in assay [6] (Table 10, read-out: IC50 (μM), inhibitory activity on the Wnt signaling pathway), 15.4 ± 1.5 µM.

As to `C=C1C(=O)C23CC[C@H]1CC2[C@@]12CCC[C@@](C)(COC1=O)C2C[C@H]3OC(=O)/C=C/c1ccccc1` (some centres unmarked) [Compound 1p], the IC50 in assay [1] (setting [9]) is 1.24 µM; in assay [2] (setting [9]) it was 1.79 µM; in assay [3] (setting [9]), 0.79 µM; in assay [4] (setting [9]), 3.4 µM; in assay [5] (setting [10]) it was 2.16 µM; in assay [6] (setting [11]), 18.6 ± 1.26 µM.

Regarding `C=C1C(=O)C23CC[C@H]1CC2[C@@]12CCC[C@@]4(C)CO[C@@H]1O[C@@H]3CC42` (some centres unmarked) [Compound 36], the IC50 was 17 µM in assay [1] (setting [16]); 10.9 µM in assay [2] (setting [16]); 13.7 µM in assay [3] (setting [16]); 18.5 µM in assay [4] (setting [16]); 24.6 µM in assay [5] (setting [17]); 18.1 ± 2.67 µM in assay [6] (setting [8]).

`C=CC(=O)O[C@@H]1CC2[C@@]3(C)CCC[C@@]2(C(=O)OC3)C2C[C@@H]3CCC21C(=O)C3=C` (some centres unmarked) [Compound 1g]: the IC50 in assay [1] (setting [9]) was 6.86 µM; in assay [2] (setting [9]) it was 10.2 µM; in assay [3] (setting [9]), 5.97 µM; in assay [4] (setting [9]) it was 5.85 µM; in assay [5] (setting [10]), 6.42 µM; in assay [6] (setting [11]), 30 ± 2.22 µM.

Regarding `C=C1C(=O)[C@]23CC[C@H]1CC2[C@@]12CCC[C@@](C)(COC1=O)C2[C@H](Cl)C3=O` (some centres unmarked) [Compound 14], the IC50 in assay [1] (setting [12]) was 3.82 µM; in assay [2] (setting [12]), 1.96 µM; in assay [3] (setting [12]), 3.03 µM; in assay [4] (setting [12]), 2.63 µM; in assay [5] (setting [13]), 2.38 µM; in assay [6] (setting [14]), 20.1 ± 1.32 µM.

In the case of `C=C1C(=O)[C@]23CC[C@H]1CC2[C@@]12CCC[C@@](C)(COC1=O)C2C(CN(C)C)C3=O` (some centres unmarked) [Compound 10], the IC50 in assay [1] (setting [12]) stood at 3.41 µM; in assay [2] (setting [12]), 0.71 µM; in assay [3] (setting [12]), 0.83 µM; in assay [4] (setting [12]) it was 1.18 µM; in assay [5] (setting [13]), 1.03 µM; in assay [6] (setting [14]), 9.54 ± 1.34 µM.

`C=C1C(=O)C23CC[C@H]1CC2[C@@]12CCC[C@@](C)(COC1=O)C2C[C@H]3OC(=O)c1ccc(C(F)(F)F)cc1` (some centres unmarked) [Compound 1m]: the IC50 in assay [1] (setting [9]) worked out at 0.89 µM; in assay [2] (setting [9]), 2.65 µM; in assay [3] (setting [9]) it was 1.73 µM; in assay [4] (setting [9]), 1.97 µM; in assay [5] (setting [10]) it was 2.19 µM; in assay [6] (setting [11]), 19 ± 1.61 µM.
